Entries after “also recorded” stand apart in the source; their conditions may differ.
How the values were obtained:
Type in all cases: cell-based, chick
[1] = target: α7 AChR E^172C mutant (C^115A/L^247T background) (Gallus gallus, UniProt P22770, C138A/E195C/L270T); assay: ACh dose-response, two-electrode voltage clamp in Xenopus oocytes
From the text: (§1) A cDNA clone of the chick α7 receptor containing two mutations (C^115A, L^247T) was used as the parental phenotype for mutations described in this study. We mutated the lone unpaired cysteine in the extracellular domain (C^115) to alanine to allow for a more straightforward interpretation of thiol modification experiments. […] We included the mutation of leucine 247 in the M2 transmembrane domain (L^247T; L9'T) because of its large current amplitudes and non-desensitizing kinetics compared to wild-type α7 receptors. […] All mutations were introduced by site-directed mutagenesis using the QuikChange method (Agilent Technologies, La Jolla, CA) as described previously, and were confirmed by DNA sequencing.
(§2) cRNA was prepared using the T7 RNA polymerase and mMessage mMachine kit as described by the manufacturer (Applied Biosystems, Austin, TX). Oocytes were surgically removed and prepared from female Xenopus laevis in accordance with UNC Institutional Animal Care and Use Committee guidelines. Oocytes were injected with 20 ng of cRNA and incubated at 18°C in ND96 (96 mM NaCl, 2 mM KCl, 1 mM MgCl2, 1.8 mM CaCl2, 5 mM Na pyruvate, 50 μg/ml gentamicin, 5 mM HEPES, pH 7.5) for 2–5 days before use. For some mutants we co-injected cRNA encoding the human RIC-3 [38], a protein shown to enhance expression of α7 AChRs in both mammalian cells and oocytes.
(§3) Oocytes were superfused in normal extracellular solution containing a reduced Ca^2+ concentration (ESLC; 96 mM NaCl, 2 mM KCl, 1 mM MgCl2, 0.1 mM CaCl2, and 10 mM HEPES, pH 7.5). […] Two-electrode voltage clamp was performed with a GeneClamp 500B controlled by pCLAMP8 software (Molecular Devices, Sunnyvale, CA). Electrodes were filled with 3 M KCl contacting Ag-AgCl wires and had resistances of 0.5 to 2.0 MΩ. Currents were recorded at a constant holding potential of -60 mV. Currents were low pass filtered at 50 Hz and sampled at 100 Hz. Agonist dose-response curves were obtained as described previously, and data were fit to the Hill equation using Origin software (Microcal Software, Northampton, MA).
(§4) MTSEA was prepared daily in distilled water and stored on ice. Stock solution was diluted to the appropriate working concentration in ESLC immediately before each application. […] To measure the effect of Ba^2+ on modification rates we pre-applied 10 mM Ba^2+ for 30 seconds prior to co-application of 10 mM Ba^2+ plus MTSEA. […] Kinetic data were analyzed as described previously; rate data were fit to a single exponential to extract a pseudo-first order rate constant; this was divided by the MTSEA concentration used to determine the second order rate constant for thiol modification.

[2] = target: α7 AChR E^44C mutant (C^115A/L^247T background) (Gallus gallus, UniProt P22770, C138A/E67C/L270T); assay: as above
From the text: as §1, §2, §3, §4

[3] = target: α7 AChR M^37C mutant (C^115A/L^247T background) (Gallus gallus, UniProt P22770, C138A/L270T/M60C); assay: as above; settings: fraction of maximal ACh-evoked current evoked by 10 mM Ba^2+ in the absence of ACh
From the text: as §1, §2, §3, §4

[4] = target: α7 AChR M^40C/E^172Q mutant (C^115A/L^247T background) (Gallus gallus, UniProt P22770, C138A/E195Q/L270T/M63C); assay: as above
From the text: as §1, §2, §3, §4

[5] = target: α7 AChR N^170C mutant (C^115A/L^247T background) (Gallus gallus, UniProt P22770, C138A/L270T/N193C); assay: as above; settings: co-expression with human RIC-3, fraction of maximal ACh-evoked current evoked by 10 mM Ba^2+ in the absence of ACh
From the text: as §1, §2, §3, §4

[6] = target: α7 AChR N^52C mutant (C^115A/L^247T background) (Gallus gallus, UniProt P22770, C138A/L270T/N75C); assay: as above
From the text: as §1, §2, §3, §4

[7] = target: α7 C^115A/L^247T receptor (Gallus gallus, UniProt P22770, C138A/L270T); assay: as above
From the text: as §1, §2, §3, §4

[8] = target: T1, α7 AChR M^40C mutant (C^115A/L^247T background) (Gallus gallus, UniProt P22770, C138A/L270T/M63C); settings: fraction of maximal ACh-evoked current evoked by 10 mM Ba^2+ in the absence of ACh
T1 construct: expressed in transfected cells; host or cells: Xenopus laevis oocytes injected with cRNA
From the text: as §1, with “sequencing. […]” for “sequencing.”
Oocytes were superfused in normal extracellular solution containing a reduced Ca^2+ concentration (ESLC; 96 mM NaCl, 2 mM KCl, 1 mM MgCl2, 0.1 mM CaCl2, and 10 mM HEPES, pH 7.5). […] Currents were recorded at a constant holding potential of -60 mV. […]
MTSEA was prepared daily in distilled water and stored on ice. […] Kinetic data were analyzed as described previously; rate data were fit to a single exponential to extract a pseudo-first order rate constant; this was divided by the MTSEA concentration used to determine the second order rate constant for thiol modification.

[9] = co-expression with human RIC-3, fraction of maximal ACh-evoked current evoked by 10 mM Ba^2+ in the absence of ACh
[10] = fraction of maximal ACh-evoked current evoked by 10 mM Ba^2+ in the absence of ACh

SMILES: [Ba+2].[Cl-].[Cl-] [Ba^2+, BaCl2]
- positive allosteric modulation of ACh currents by Ba^2+ ([1]; 10 mM Ba^2+): no positive allosteric modulation
- Ba^2+ efficacy [1, 9]: 0.02
- positive allosteric modulation of ACh currents by Ba^2+ ([2]; 10 mM Ba^2+): eliminated; also recorded: no positive allosteric modulation
- Ba^2+ efficacy [2, 10]: 0.01
- Ba^2+ efficacy [3]: 0.2
- positive allosteric modulation of ACh currents by Ba^2+ ([4]; 10 mM Ba^2+): not positively modulated
- Ba^2+ efficacy [4, 9]: 0.02
- Ba^2+ efficacy [5]: 0.03
- agonism by Ba^2+ in the absence of ACh ([6]; 10 mM Ba^2+): high partial agonism
- Ba^2+ efficacy [6, 10]: 0.6
- decrease in ACh EC50 (leftward shift in the dose-response curve) caused by Ba^2+ ([7]; 10 mM Ba^2+): ~ 10 fold
- Ba^2+ efficacy [7, 10]: 0.1
- Ba^2+ efficacy [8]: 0.1

Source: article PMC2632993, “Conformational changes in α7 acetylcholine receptors underlying allosteric modulation by divalent cations” (BMC Pharmacology, 2009)
